Where “and” joins values, the source holds several entries; their conditions need not be identical. Equal values may be shown once.
Columns and labels:
Assay type in all cases: cell-based
[1] = tested on: cells expressing pluripotency markers derived from human embryonic stem cells; assay: MTS viability (toxicity) assay of cells expressing pluripotency markers; design: Raw data (duplicate), first replicate / Average: unit not given here; conditions: for viability at 10 µM: Homo sapiens, Embryonic stem cell; for viability at 10 µM / % Control: viability of cells expressing pluripotency markers, relative to control; for Raw data (duplicate), first replicate / Raw data (duplicate), second replicate: MTS viability assay raw reading; for Raw data (duplicate), first replicate: replicate 1; for Raw data (duplicate), second replicate: replicate 2; for Average: average of duplicate MTS raw readings
Outline: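 Cells expressing pluripotency markers, derived from human embryonic stem cells, were plated at 20,000 cells per well in 96-well clear-bottom plates and cultured overnight. Test compounds were applied in assay medium on days 1 and 2, and compound-free medium on days 3 and 4. On day 4, MTS was added and optical density at 490 nm was read in duplicate.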

[2] = tested on: Sox17 expression in human embryonic stem cells (H9 line); assay: High content screening assay: Sox17 protein expression (differentiation); conditions: for fold induction at 10 µM: Homo sapiens, Embryonic stem cell, read-out: SOX17 Expression, Fold over Wnt 3a/AA control; for fold induction at 10 µM / SOX17 Expression, Fold over Wnt 3a/AA control: 10 μM test compound with 100 ng/ml activin A on days 1-2, H9, total intensity by IN Cell Analyzer, strong and moderate hits; for SOX-17 Expression Fold over Wnt 3a/AA control: total intensity normalised to Wnt 3a/AA control
Outline: (§1)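 H9 hESCs on MATRIGEL treated days 1-2 with 10 μM compound in DMEM:F12, 0.5% FCS, 100 ng/ml activin A; days 3-4 with 2% FCS plus activin A without compound. Fixed cells immunostained for Sox17 or HNF-3beta with Draq5 nuclear counterstain. Cell number and staining intensity quantified by high-content imaging, 12 fields/well.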

[3] = tested on: HNF-3beta expression in human embryonic stem cells (H9 line); assay: High content screening assay: HNF-3beta protein expression (differentiation); conditions: for fold induction at 10 µM: Homo sapiens, Embryonic stem cell, read-out: HNF3β Expression, Fold over Wnt 3a/AA control; for fold induction at 10 µM / HNF3β Expression, Fold over Wnt 3a/AA control: 10 μM test compound with 100 ng/ml activin A on days 1-2, H9, total intensity by IN Cell Analyzer, strong and moderate hits; for HNF-3b Expression Fold over Wnt 3a/AA control: total intensity normalised to Wnt 3a/AA control
Outline: as §1

O=C1NC(=O)C(c2cn(CCCO)c3ncccc23)=C1c1cccs1 [Compound 17, 3-[1-(3-Hydroxypropyl)-1H-pyrrolo[2,3-b]pyridin-3-yl]-4-thiophen-2-yl-1H-pyrrole-2,5-dione]
viability at 10 µM [1]: 99.1%
Raw data (duplicate), first replicate [1]: 0.803
Raw data (duplicate), second replicate [1]: 0.782
Average [1]: 0.792
SOX-17 Expression Total Intensity [2]: 14786632
HNF-3b Expression Total Intensity [3]: 14201404

Cn1ccc(C2=C(c3cn(CCCO)c4ncccc34)C(=O)NC2=O)n1 [Compound 209]
viability at 10 µM [1]: 121%
Raw data (duplicate), first replicate [1]: 0.971
Raw data (duplicate), second replicate [1]: 0.913
Average [1]: 0.942
fold induction at 10 µM [2]: 0.628
SOX-17 Expression Total Intensity [2]: 80676667
fold induction at 10 µM [3]: 0.772
HNF-3b Expression Total Intensity [3]: 143916667

O=C1NC(=O)C2=C1c1cn(c3ncccc13)CCOCCOCCOCCOCCn1cc2c2cccnc21 [Compound 169]
Raw data (duplicate), first replicate [1]: 0.681 and 0.636
Raw data (duplicate), second replicate [1]: 0.698 and 0.621
Average [1]: 0.689 and 0.629
% Control [1]: 84.5% and 75.4%
SOX17 Expression, Fold over Wnt 3a/AA control [2]: 1.0342 Fold over Wnt 3a/AA control
HNF3β Expression, Fold over Wnt 3a/AA control [3]: 0.9520 Fold over Wnt 3a/AA control

O=C(Nc1ccc(C(=O)N2CC3CSCCN3Cc3ccccc32)c(Cl)c1)c1cc(Cl)cc(Cl)c1 (stereo not shown) [Compound 166, 3,5-Dichloro-N-[3-chloro-4-(3,4,12,12a-tetrahydro-1H-[1,4]thiazino[3,4-c][1,4]benzodiazepin-11(6H)-ylcarbonyl)phenyl]benzamide]
viability at 10 µM [1]: 74.8%
Raw data (duplicate), first replicate [1]: 0.615
Raw data (duplicate), second replicate [1]: 0.635
Average [1]: 0.625
SOX-17 Expression Total Intensity [2]: 11388240
HNF-3b Expression Total Intensity [3]: 10743082

COc1ccccc1C1=C(c2cn(CCCNC(C)=O)c3ncccc23)C(=O)NC1=O [Compound 27, N-[3-(3-{4-[2-(Methyloxy)phenyl]-2,5-dioxo-2,5-dihydro-1H-pyrrol-3-yl}-1H-pyrrolo[2,3-b]pyridin-1-yl)propyl]acetamide]
viability at 10 µM [1]: 7.2%
Raw data (duplicate), first replicate [1]: 0.160
Raw data (duplicate), second replicate [1]: 0.186
Average [1]: 0.173
SOX-17 Expression Total Intensity [2]: 125443
HNF-3b Expression Total Intensity [3]: 0

O=C1NC(=O)C2=C1c1cn(c3ncccc13)CCOCCOCCn1cc2c2cccnc21 [Compound 180, 6,7,9,10,12,13-Hexahydro-20H-5,23:14,19-di(metheno)dipyrido[2,3-h:3′,2′-n]pyrrolo[3,4-k][1,4,7,16]dioxadiazacyclooctadecine-20,22(21H)-dione]
Raw data (duplicate), first replicate [1]: 0.141 and 0.611
Raw data (duplicate), second replicate [1]: 0.128 and 0.628
SOX-17 Expression Total Intensity [2]: 0
SOX-17 Expression Fold over Wnt 3a/AA control [2]: 0.0000 fold
HNF-3b Expression Total Intensity [3]: 101114
HNF-3b Expression Fold over Wnt 3a/AA control [3]: 0.0037 fold

O=C1NC(=O)C2=C1c1cn(c3ncccc13)CCOCCOCCOCCOCCOCCn1cc2c2cccnc21 [Compound 168, 10,11,13,14,16,17,19,20,22,23,25,26-Dodecahydro-1H-9,4:27,32-di(metheno)dipyrido[2,3-q:3′,2′-w]pyrrolo[3,4-t][1,4,7,10,13,16,25]pentaoxadiazacycloheptacosine-1,3(2H)-dione]
Raw data (duplicate), first replicate [1]: 0.610
Raw data (duplicate), second replicate [1]: 0.628
Average [1]: 0.619
% Control [1]: 73.9%
SOX-17 Expression Total Intensity [2]: 2574279
SOX-17 Expression Fold over Wnt 3a/AA control [2]: 0.0837 fold
HNF-3b Expression Total Intensity [3]: 2584708
HNF-3b Expression Fold over Wnt 3a/AA control [3]: 0.0943 fold

O=C1NC(=O)C2=C1c1cn(c3ccccc13)CCOCCOCCOCCOCCn1cc2c2ccccc21 [Compound 165, 10,11,13,14,16,17,19,20,22,23-Decahydro-1H-9,4:24,29-di(metheno)dibenzo[n,t]pyrrolo[3,4-q][1,4,7,10,13,22]tetraoxadiazacyclotetracosine-1,3(2H)-dione]
Raw data (duplicate), first replicate [1]: 0.690
Raw data (duplicate), second replicate [1]: 0.674
Average [1]: 0.682
% Control [1]: 83.3%
SOX17 Expression, Fold over Wnt 3a/AA control [2]: 1.0630 Fold over Wnt 3a/AA control
SOX-17 Expression Total Intensity [2]: 32703235
SOX-17 Expression Fold over Wnt 3a/AA control [2]: 1.0630 fold
HNF3β Expression, Fold over Wnt 3a/AA control [3]: 5.4668 Fold over Wnt 3a/AA control
HNF-3b Expression Total Intensity [3]: 149772525
HNF-3b Expression Fold over Wnt 3a/AA control [3]: 5.4668 fold

O=C1NC(=O)C(c2cn(CCCO)c3ncccc23)=C1c1cn(CCO)cn1 [Compound 183, 3-[1-(2-Hydroxyethyl)-1H-imidazol-4-yl]-4-[1-(3-hydroxypropyl)-1H-pyrrolo[2,3-b]pyridin-3-yl]-1H-pyrrole-2,5-dione]
viability at 10 µM [1]: 82.6%
Raw data (duplicate), first replicate [1]: 0.792
Raw data (duplicate), second replicate [1]: 0.572
Average [1]: 0.682
SOX-17 Expression Total Intensity [2]: 48154
HNF-3b Expression Total Intensity [3]: 170177

O=C1NC(=O)C(c2cn(CCCO)c3ncccc23)=C1c1ccccc1C(F)(F)F [Compound 16, 3-[1-(3-Hydroxypropyl)-1H-pyrrolo[2,3-b]pyridin-3-yl]-4-[2-(trifluoromethyl)phenyl]-1H-pyrrole-2,5-dione]
viability at 10 µM [1]: 73.7%
Raw data (duplicate), first replicate [1]: 0.641
Raw data (duplicate), second replicate [1]: 0.601
Average [1]: 0.621
fold induction at 10 µM [2]: 0.648
fold induction at 10 µM [3]: 1.1

O=C1NC(=O)C(c2cn(CCCO)c3ncccc23)=C1c1ccn(CCCO)n1 [Compound 185, 3-[1-(3-Hydroxypropyl)-1H-pyrazol-3-yl]-4-[1-(3-hydroxypropyl)-1H-pyrrolo[2,3-b]pyridin-3-yl]-1H-pyrrole-2,5-dione]
viability at 10 µM [1]: 104%
Raw data (duplicate), first replicate [1]: 0.830
Raw data (duplicate), second replicate [1]: 0.807
Average [1]: 0.818
fold induction at 10 µM [2]: 0.889
fold induction at 10 µM [3]: 0.865

CN(C)CCCn1cc(C2=C(c3cccc4ccccc34)C(=O)NC2=O)c2cccnc21 [Compound 175, 3-{1-[3-(Dimethylamino)propyl]-1H-pyrrolo[2,3-b]pyridin-3-yl}-4-naphthalen-1-yl-1H-pyrrole-2,5-dione]
viability at 10 µM [1]: 3%
Raw data (duplicate), first replicate [1]: 0.135
Raw data (duplicate), second replicate [1]: 0.158
Average [1]: 0.146
SOX-17 Expression Total Intensity [2]: 0
HNF-3b Expression Total Intensity [3]: 1605538

Cn1cc(C2=C(c3nn(CCCn4ccnc4)c4ccccc34)C(=O)NC2=O)c2cc(Cl)ccc21 [Compound 231, 3-(5-Chloro-1-methyl-1H-indol-3-yl)-4-{1-[3-(1H-imidazol-1-yl)propyl]-1H-indazol-3-yl}-1H-pyrrole-2,5-dione]
viability at 10 µM [1]: 76.7%
Raw data (duplicate), first replicate [1]: 0.640
Raw data (duplicate), second replicate [1]: 0.636
Average [1]: 0.638
fold induction at 10 µM [2]: 0.811
SOX-17 Expression Total Intensity [2]: 789085000
HNF-3b Expression Total Intensity [3]: 547055000

O=C1NC(=O)C2=C1c1cn(c3ccccc13)CCOCCOCCOCCn1cc2c2ccccc21 [Compound 163, 6,7,9,10,12,13,15,16-Octahydro-23H-5,26:17,22-di(metheno)dibenzo[k,q]pyrrolo[3,4-n][1,4,7,10,19]trioxadiazacyclohenicosine-23,25(24H)-dione]
Raw data (duplicate), first replicate [1]: 0.678
Raw data (duplicate), second replicate [1]: 0.661
Average [1]: 0.670
% Control [1]: 80.8%
SOX17 Expression, Fold over Wnt 3a/AA control [2]: 0.9266 Fold over Wnt 3a/AA control
SOX-17 Expression Total Intensity [2]: 28506437
SOX-17 Expression Fold over Wnt 3a/AA control [2]: 0.9266 fold
HNF3β Expression, Fold over Wnt 3a/AA control [3]: 3.1115 Fold over Wnt 3a/AA control
HNF-3b Expression Total Intensity [3]: 85245671
HNF-3b Expression Fold over Wnt 3a/AA control [3]: 3.1115 fold

Source: patent US20130337564A1, “Treatment of Pluripotent Cells” (Janssen Biotech, Inc., priority 2012, published 2013)
